Test results taken from patent US8178690B2, “Compounds and methods for inhibiting the interaction of BCL proteins with binding partners” (Infinity Pharmaceuticals, Inc., priority 2006, dated 2012).
pKi: −log10 of the molar value.

Columns and labels:
Bcl-xL = Bcl-xL (Homo sapiens, UniProt Q07817); assay: Bcl-xL binding affinity analysis (fluorescence polarization binding assay); details: read-out: BcI-XI (Ki, Bcl-xL binding affinity)
Excerpt: (§1) Bcl-2 and Bcl-xL binding may be determined using a variety of known methods. One such assay is a sensitive and quantitative in vitro binding assay using fluorescence polarization (FP) described by Wang, J.-L.; Zhang, Z-J.; Choksi, S.; Sjam. S.; Lu, Z.; Croce, C. M.; Alnemri, E. S.; Komgold, R.; Huang, Z. Cell permeable Bcl-2 binding peptides: a chemical approach to apoptosis induction in tumor cells. Cancer Res. 2000, 60, 1498-1502).
(§2) Bcl-2 and Bcl-xL binding affinity analysis data is presented below for various compounds of the invention.

Bcl-2 = Bcl-2 (Homo sapiens, UniProt P10415); assay: Bcl-2 binding affinity analysis (fluorescence polarization binding assay); details: read-out: BcI2 (Ki, Bcl-2 binding affinity)
Excerpt: as §1, §2

Sequence of Bcl-2 (P10415 whole entry): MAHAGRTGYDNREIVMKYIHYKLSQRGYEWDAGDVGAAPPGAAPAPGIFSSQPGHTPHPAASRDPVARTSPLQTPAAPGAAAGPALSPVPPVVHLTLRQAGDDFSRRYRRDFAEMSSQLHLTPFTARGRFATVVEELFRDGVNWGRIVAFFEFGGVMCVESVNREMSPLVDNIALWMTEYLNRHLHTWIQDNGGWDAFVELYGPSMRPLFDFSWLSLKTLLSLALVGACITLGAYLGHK
Sequence of Bcl-xL (Q07817 whole entry): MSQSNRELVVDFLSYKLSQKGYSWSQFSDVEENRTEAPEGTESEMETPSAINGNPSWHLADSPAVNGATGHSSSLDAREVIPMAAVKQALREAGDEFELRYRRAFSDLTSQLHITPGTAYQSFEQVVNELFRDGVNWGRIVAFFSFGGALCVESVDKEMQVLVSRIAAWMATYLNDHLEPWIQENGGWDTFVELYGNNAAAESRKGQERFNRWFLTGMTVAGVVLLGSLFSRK

pKi (Bcl-xL)	pKi (Bcl-2)	Structure (SMILES)
> 6.00	> 9.00	COc1c(CN2O[C@@H](CNC(=O)CCC(=O)O)[C@@H]([C@H](C)O)[C@H]2C(=O)N[C@H]2C[C@H]3C[C@@H]([C@@H]2C)C3(C)C)cccc1-c1cc(C(=O)N[C@H](CN(C)C)CC(C)(C)C)cc(N(C)C)c1 [Compound 114]
5.30 to 6.00	8.30 to 9.00	COc1c(CN2O[C@@H](CO)[C@@H]([C@H](C)O)[C@H]2C(=O)N[C@H]2C[C@H]3C[C@@H]([C@@H]2C)C3(C)C)cccc1-c1cc(NCC(C)C)cc(C(=O)N[C@@H](CC(C)C)CN(C)C)c1 [Compound 270]
> 6.00	> 9.00	COc1c(CN2O[C@@H](CO)[C@@H]([C@H](C)O)[C@H]2C(=O)N[C@H]2C[C@H]3C[C@@H]([C@@H]2C)C3(C)C)cccc1-c1cc(C(=O)N[C@H](Cc2ccccc2)CN2CCN(C)CC2)cc(N(C)C)c1 [Compound 313]
> 6.00	> 9.00	COc1c(CN2O[C@@H](CO)[C@@H]([C@H](C)O)[C@H]2C(=O)N[C@H]2C[C@H]3C[C@@H]([C@@H]2C)C3(C)C)cccc1-c1cc(C(=O)N[C@@H](Cc2cccs2)CN(C)C)cc(N(C)C)c1 [Compound 251]
> 6.00	> 9.00	CCNc1cc(C(=O)N[C@@H](CC(C)C)CN(C)C)cc(-c2cccc(CN3O[C@@H](CO)[C@@H]([C@H](C)O)[C@H]3C(=O)N[C@H]3C[C@H]4C[C@@H]([C@@H]3C)C4(C)C)c2OC)c1 [Compound 269]
5.00 to 5.30	8.05 to 8.30	CNC(=O)c1cc(-c2cccc(CN3O[C@@H](CNCC(C)C)[C@@H]([C@H](C)O)[C@H]3C(=O)N[C@H]3C[C@H]4C[C@@H]([C@@H]3C)C4(C)C)c2OC)cc(N(C)C)c1 [Compound 95]
5.00 to 5.30	< 8.05	CNC(=O)c1cc(-c2cccc(CN3O[C@@H](CNC(=O)Nc4ccccc4)[C@@H]([C@H](C)O)[C@H]3C(=O)N[C@H]3C[C@H]4C[C@@H]([C@@H]3C)C4(C)C)c2OC)cc(N(C)C)c1 [Compound 79]
> 6.00	> 9.00	CNC(=O)CN(C)c1cc(C(=O)N[C@@H](Cc2ccccc2)CN(C)C)cc(-c2cccc(CN3O[C@@H](CO)[C@@H]([C@H](C)O)[C@H]3C(=O)N[C@H]3C[C@H]4C[C@@H]([C@@H]3C)C4(C)C)c2OC)c1 [Compound 309]
> 6.00	> 9.00	COc1c(CN2O[C@@H](CN)[C@@H]([C@H](C)O)[C@H]2C(=O)N[C@H]2C[C@H]3C[C@@H]([C@@H]2C)C3(C)C)cccc1-c1cc(C(=O)N[C@H](CC(C)C)CN(C)C)cc(N(C)C)c1 [Compound 68]
> 6.00	> 9.00	CCOc1c(CN2O[C@@H](CO)[C@@H]([C@H](C)O)[C@H]2C(=O)N[C@H]2C[C@H]3C[C@@H]([C@@H]2C)C3(C)C)cccc1-c1cc(C(=O)N[C@@H](CC(C)C)CN(C)C)cc(N(C)C)c1 [Compound 35]
> 6.00	> 9.00	CCOc1c(CN2O[C@@H](CO)[C@@H]([C@H](C)O)[C@H]2C(=O)N[C@H]2C[C@H]3C[C@@H]([C@@H]2C)C3(C)C)cccc1-c1cc(C(=O)N[C@H](CN(C)C)CC(C)(C)C)cc(N(C)C)c1 [Compound 24]
> 6.00	> 9.00	COc1c(CN2O[C@@H](CO)[C@@H]([C@H](C)O)[C@H]2C(=O)N[C@H]2C[C@H]3C[C@@H]([C@@H]2C)C3(C)C)cccc1-c1cc(C(=O)N[C@@H](Cc2ccccc2)CN(C)C)cc(N(C)CCO)c1 [Compound 285]
5.30 to 6.00	8.05 to 8.30	COc1c(CN2O[C@@H](CO)[C@@H]([C@H](C)O)[C@H]2C(=O)N[C@H]2C[C@H]3C[C@@H]([C@@H]2C)C3(C)C)cccc1-c1cc(NC(C)=O)cc(C(=O)N[C@@H](CC(C)C)CN(C)C)c1 [Compound 262]
> 6.00	> 9.00	COc1c(CN2O[C@@H](CO)[C@@H]([C@H](C)O)[C@H]2C(=O)N[C@H]2C[C@H]3C[C@@H]([C@@H]2C)C3(C)C)cccc1-c1cc(C(=O)N[C@@H](CC(C)C)CN2CCCC2)cc(N(C)C)c1 [Compound 320]
5.00 to 5.30	< 8.05	CNC(=O)c1cc(-c2cccc(CN3O[C@@H](CN(CC(C)C)CC(C)C)[C@@H]([C@H](C)O)[C@H]3C(=O)N[C@H]3C[C@H]4C[C@@H]([C@@H]3C)C4(C)C)c2OC)cc(N(C)C)c1 [Compound 98]
5.00 to 5.30	< 8.05	COc1c(CN2O[C@@H](CNC(=O)C(F)(F)F)[C@@H]([C@H](C)O)[C@H]2C(=O)N[C@H]2C[C@H]3C[C@@H]([C@@H]2C)C3(C)C)cccc1-c1cc(C(=O)NCCc2ccccc2)cc(N(C)C)c1 [Compound 74]
5.00 to 5.30	8.05 to 8.30	COC[C@@H](Cc1ccccc1)NC(=O)c1cc(-c2cccc(CN3O[C@@H](CO)[C@@H]([C@H](C)O)[C@H]3C(=O)N[C@H]3C[C@H]4C[C@@H]([C@@H]3C)C4(C)C)c2OC)cc(N(C)C)c1 [Compound 12]

pKi (Bcl-xL)	pKi (Bcl-2)	Structure (SMILES)
5.00 to 5.30	> 9.00	COc1c(CN2O[C@@H](CN)[C@@H]([C@H](C)O)[C@H]2C(=O)N[C@H]2C[C@H]3C[C@@H]([C@@H]2C)C3(C)C)cccc1-c1cc(C(=O)NCCN(C)C)cc(N(C)C)c1 [Compound 63]
> 6.00	> 9.00	COc1c(CN2O[C@@H](CO)[C@@H]([C@H](C)O)[C@H]2C(=O)N[C@H]2C[C@H]3C[C@@H]([C@@H]2C)C3(C)C)cccc1-c1cc(C(=O)N[C@H](CN(C)C)[C@@H](NS(C)(=O)=O)c2ccccc2)cc(N(C)C)c1 [Compound 144]
> 6.00	> 9.00	CC(C)C[C@H](CN(C)C)NC(=O)c1cc(-c2cccc(CN3O[C@@H](CO)[C@@H]([C@H](C)O)[C@H]3C(=O)N[C@H]3C[C@H]4C[C@@H]([C@@H]3C)C4(C)C)c2OCC2CC2)cc(N(C)C)c1 [Compound 34]
5.30 to 6.00	8.30 to 9.00	COc1c(CN2O[C@@H](CO)[C@@H]([C@H](C)O)[C@H]2C(=O)N[C@H]2C[C@H]3C[C@@H]([C@@H]2C)C3(C)C)cccc1-c1cc(C(=O)N[C@@H](CC(C)C)CN(C)C)cc(N2CCCCC2)c1 [Compound 268]
> 6.00	> 9.00	COc1c(CN2O[C@@H](CO)[C@@H]([C@H](C)O)[C@H]2C(=O)N[C@H]2C[C@H]3C[C@@H]([C@@H]2C)C3(C)C)cccc1-c1cc(C(=O)N[C@H](CN2CCCC2)[C@H](O)c2ccccc2)cc(N(C)C)c1 [Compound 160]
< 5.00	8.30 to 9.00	CNC(=O)c1cc(-c2cccc(CN3O[C@@H](CN)[C@@H]([C@H](C)O)[C@H]3C(=O)N[C@H]3C[C@H]4C[C@@H]([C@@H]3C)C4(C)C)c2OC)cc(N(C)C)c1 [Compound 70]
5.00 to 5.30	8.05 to 8.30	COc1c(CN2O[C@@H](CN(C)C)[C@@H]([C@H](C)O)[C@H]2C(=O)N[C@H]2C[C@H]3C[C@@H]([C@@H]2C)C3(C)C)cccc1-c1cc(C(=O)NCCc2ccccc2)cc(N(C)C)c1 [Compound 80]
> 6.00	> 9.00	COc1c(-c2cc(C(=O)N[C@H](CN(C)C)[C@@H](NS(C)(=O)=O)c3ccccc3)cc(N(C)C)c2)ccc(F)c1CN1O[C@@H](CO)[C@@H]([C@H](C)O)[C@H]1C(=O)N[C@H]1C[C@H]2C[C@@H]([C@@H]1C)C2(C)C [Compound 151]
> 6.00	> 9.00	COc1c(CN2O[C@@H](CO)[C@@H]([C@H](C)O)[C@H]2C(=O)N[C@H]2C[C@H]3C[C@@H]([C@@H]2C)C3(C)C)cccc1-c1cc(C(=O)N[C@H](CN(C)C)CC(C)(C)C)c(Br)c(N(C)C)c1 [Compound 257]
> 6.00	> 9.00	COc1c(CN2O[C@@H](CO)[C@@H]([C@H](C)O)[C@H]2C(=O)N[C@H]2C[C@H]3C[C@@H]([C@@H]2C)C3(C)C)cccc1-c1cc(C(=O)N[C@H](CN(C)C)[C@H](O)c2ccccc2)cc(N(C)C)c1 [Compound 136]
> 6.00	> 9.00	COc1c(CN2O[C@@H](CO)[C@@H]([C@H](C)O)[C@H]2C(=O)N[C@H]2C[C@H]3C[C@@H]([C@@H]2C)C3(C)C)cccc1-c1cc(C(=O)NCCc2ccccc2)cc(N(C)C)c1 [Compound 126]
5.30 to 6.00	> 9.00	COc1c(CN2O[C@@H](CO)[C@@H]([C@H](C)O)[C@H]2C(=O)N[C@H]2C[C@H]3C[C@@H]([C@@H]2C)C3(C)C)cccc1-c1cc(C(=O)N[C@@H](Cc2ccccc2)CN(C)C)cc(N2CCOCC2)c1 [Compound 240]
> 6.00	> 9.00	COc1c(CN2O[C@@H](CNC(=O)CCN(C)C)[C@@H]([C@H](C)O)[C@H]2C(=O)N[C@H]2C[C@H]3C[C@@H]([C@@H]2C)C3(C)C)cccc1-c1cc(C(=O)N[C@H](CN(C)C)CC(C)(C)C)cc(N(C)C)c1 [Compound 115]
< 5.00	> 9.00	COC(=O)[C@H](Cc1ccccc1)NC(=O)c1cc(-c2cccc(CN3O[C@@H](CN)[C@@H]([C@H](C)O)[C@H]3C(=O)N[C@H]3C[C@H]4C[C@@H]([C@@H]3C)C4(C)C)c2OC)cc(N(C)C)c1 [Compound 65]
> 6.00	> 9.00	COc1c(CN2O[C@@H](CO)[C@@H]([C@H](C)O)[C@H]2C(=O)N[C@H]2C[C@H]3C[C@@H]([C@@H]2C)C3(C)C)cccc1-c1cc(Cl)cc(C(=O)N[C@@H](Cc2ccccc2)CN(C)C)c1 [Compound 255]
> 6.00	> 9.00	COc1c(CN2O[C@@H](CO)[C@@H]([C@H](C)O)[C@H]2C(=O)N[C@H]2C[C@H]3C[C@@H]([C@@H]2C)C3(C)C)cccc1-c1cc(C(=O)N[C@@H](Cc2cccc(N)c2)CN(C)C)cc(N(C)C)c1 [Compound 206]
5.30 to 6.00	> 9.00	CCOc1c(CN2O[C@@H](CO)[C@@H]([C@H](C)O)[C@H]2C(=O)N[C@H]2C[C@H]3C[C@@H]([C@@H]2C)C3(C)C)cccc1-c1cc(C(=O)N[C@H](CC(C)C)CN(C)C)cc(N(C)C)c1 [Compound 259]
